For 22 compounds, IC50 and Ki results are on record in US11787780B2 (CORCEPT THERAPEUTICS INCORPORATED, priority 2020, dated 2023).

Assay [1] addresses glucocorticoid receptor (GR) recombinant ligand binding domain (LBD) (Homo sapiens (Human), UniProt P04150). The assay is described as follows: GR binding fluorescence polarisation (FP) assay. To be noted: displacement of fluorescently tagged ligand. As for the experimental part:
Binding of test compounds to the glucocorticoid receptor (GR) is determined using a fluorescence polarisation (FP) assay utilising a recombinant ligand binding domain (LBD) of GR. The test compounds are assessed by their ability to displace a fluorescently tagged ligand and detection of the resulting decrease in fluorescence polarisation.

The test system of assay [2] is induction of TAT by dexamethasone in HepG2 cells. The assay is described as follows: Hep G2 TAT assay (inhibition of dexamethasone-induced TAT). It counts as cell-based, human. To be noted: challenge of 100 nM dexamethasone, IC50 converted to Ki by Cheng and Prusoff equation.

Sequence of glucocorticoid receptor (GR) recombinant ligand binding domain (LBD) (P04150 524-758): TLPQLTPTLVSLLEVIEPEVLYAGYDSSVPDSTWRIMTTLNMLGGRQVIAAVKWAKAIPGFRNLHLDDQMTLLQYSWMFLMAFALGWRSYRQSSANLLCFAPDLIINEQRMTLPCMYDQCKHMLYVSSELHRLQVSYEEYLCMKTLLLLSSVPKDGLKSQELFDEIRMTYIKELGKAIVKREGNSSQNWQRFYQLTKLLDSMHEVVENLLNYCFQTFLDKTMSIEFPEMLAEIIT

Consider `[2H]C([2H])([2H])n1cc(-n2ncc3cc(C4(Cc5ccccc5)CCN(S(=O)(=O)c5cnn(C)n5)C4)c(C)cc32)ccc1=O` (centres unmarked) [Example 261, 5-(5-(3-benzyl-1-((2-methyl-2H-1,2,3-triazol-4-yl)sulfonyl)pyrrolidin-3-yl)-6-methyl-1H-indazol-1-yl)-1-(methyl-d3)pyridin-2(1H)-one], for which the IC50 – broadly, the concentration needed to halve the response being measured – in assay [1] is 2.9 nM. For the same compound, the Ki – broadly, a dissociation constant, usually derived from enzyme kinetics or from competition with a known ligand – in assay [2] came out at 44 nM.

Take `Cc1cc2c(cnn2-c2cnn(C)c2)cc1C1(Cc2ccccc2)CCN(S(=O)(=O)c2ccc(F)c(F)c2)C1` (centres unmarked) [Example 272, 5-(3-benzyl-1-((3,4-difluorophenyl)sulfonyl)pyrrolidin-3-yl)-6-methyl-1-(1-methyl-1H-pyrazol-4-yl)-1H-indazole]: the IC50 in assay [1] is 22 nM. In assay [2], this compound yielded a Ki of 29 nM.

For the compound `CC(=O)N1CCC(Cc2cccc(C(F)(F)F)c2)(c2cc3cnn(-c4ccc(F)cc4)c3cc2C)C1` (centres unmarked) [Example 192, 1-(3-(1-(4-fluorophenyl)-6-methyl-1H-indazol-5-yl)-3-(3-(trifluoromethyl)benzyl)pyrrolidin-1-yl)ethan-1-one], the IC50 in assay [1] stood at 14 nM. The compound also came in with a Ki in assay [2] of 72 nM.

With `C[C@@H]1CN(c2ccc3c(cnn3-c3ccc(F)cc3)c2)CCN1S(=O)(=O)c1cnn(CC2CC2)c1` [Example 39], in assay [1], the IC50 was 81 nM. In assay [2], the Ki is 242 nM.

For the compound `Cc1cc2c(cnn2-c2ccc(=O)n(C)c2)cc1C1(Cc2ccccc2)CCN(S(=O)(=O)c2ccc(Cl)cc2C#N)C1` (centres unmarked) [Example 313, 2-((3-benzyl-3-(6-methyl-1-(1-methyl-6-oxo-1,6-dihydropyridin-3-yl)-1H-indazol-5-yl)pyrrolidin-1-yl)sulfonyl)-5-chlorobenzonitrile], in assay [1], the IC50 worked out at 8.3 nM. The compound also came in with a Ki in assay [2] of 50 nM.

For the compound `Cc1cc2c(cnn2-c2ccc(=O)[nH]c2)cc1C1(Cc2ccccc2)CCN(S(=O)(=O)c2cnn(C)n2)C1` (centres unmarked) [Example 267, 5-(5-(3-benzyl-1-((2-methyl-2H-1,2,3-triazol-4-yl)sulfonyl)pyrrolidin-3-yl)-6-methyl-1H-indazol-1-yl)pyridin-2(1H)-one], the IC50 in assay [1] came out at 5.6 nM. This compound had a Ki in assay [2] of 93 nM.

On to `Cc1cc2c(cnn2-c2ccc(=O)n(C)c2)cc1C1(Cc2ccccc2)CCN(S(=O)(=O)c2ccnn2C)C1` (centres unmarked) [Example 293, 5-(5-(3-benzyl-1-((1-methyl-1H-pyrazol-5-yl)sulfonyl)pyrrolidin-3-yl)-6-methyl-1H-indazol-1-yl)-1-methylpyridin-2(1H)-one], for which the IC50 in assay [1] stood at 6.1 nM. Further, the Ki in assay [2] was 100 nM.

In the case of `CCCn1cc(S(=O)(=O)N2CCC(Cc3ccccc3)(c3cc4cnn(-c5ccc(=O)n(C)c5)c4cc3C)C2)cn1` (centres unmarked) [Example 318, 5-(5-(3-benzyl-1-((1-propyl-1H-pyrazol-4-yl)sulfonyl)pyrrolidin-3-yl)-6-methyl-1H-indazol-1-yl)-1-methylpyridin-2(1H)-one], the IC50 in assay [1] was found to be 5.1 nM. Further, in assay [2], the Ki turned out to be 48 nM.

Take `Cc1ccc(S(=O)(=O)N2CCC(Cc3ccccc3)(c3cc4cnn(-c5ccc(=O)n(C)c5)c4cc3C)C2)cn1` (centres unmarked) [Example 299, 5-(5-(3-benzyl-1-((6-methylpyridin-3-yl)sulfonyl)pyrrolidin-3-yl)-6-methyl-1H-indazol-1-yl)-1-methylpyridin-2(1H)-one]: in assay [1], the half-inhibitory concentration (IC50) turned out to be 8.8 nM. The compound also showed a Ki in assay [2] of 48 nM.

For the compound `CNS(=O)(=O)C1CCN(c2cc3cnn(-c4ccc(F)cc4)c3cc2C)C1` (centres unmarked) [Example 28, 1-(1-(4-fluorophenyl)-6-methyl-1H-indazol-5-yl)-N-methylpyrrolidine-3-sulfonamide], in assay [1], the IC50 was 114 nM. The compound further yielded a Ki in assay [2] of 1060 nM.

On to `CC(=O)N1CCC(Cc2ccc(F)cc2)(c2cc3cnn(-c4ccc(F)cc4)c3cc2C)C1` (centres unmarked) [Example 191, 1-(3-(4-fluorobenzyl)-3-(1-(4-fluorophenyl)-6-methyl-1H-indazol-5-yl)pyrrolidin-1-yl)ethan-1-one], for which the IC50 in assay [1] came out at 6 nM. In assay [2], this compound registered a Ki of 61 nM.

In the case of `Cc1cc2c(cnn2-c2ccc(=O)n(C)c2)cc1C1(Cc2ccccc2)CCN(S(=O)(=O)C2CC2)C1` (centres unmarked) [Example 289, 5-(5-(3-benzyl-1-(cyclopropylsulfonyl)pyrrolidin-3-yl)-6-methyl-1H-indazol-1-yl)-1-methylpyridin-2(1H)-one], the IC50 in assay [1] was 13 nM. This compound also yielded a Ki in assay [2] of 69 nM.

In the case of `CCC1(c2cc3cnn(-c4ccc(F)cc4)c3cc2C)CCN(S(C)(=O)=O)C1` (centres unmarked) [Example 167], the IC50 in assay [1] was 8 nM. The Ki in assay [2] was 256 nM.

Consider `Cc1cc2c(cnn2-c2ccc(=O)n(C)c2)cc1C1(Cc2ccccc2)CCN(S(=O)(=O)c2cnccc2Cl)C1` (centres unmarked) [Example 311, 5-(5-(3-benzyl-1-((4-chloropyridin-3-yl)sulfonyl)pyrrolidin-3-yl)-6-methyl-1H-indazol-1-yl)-1-methylpyridin-2(1H)-one], for which the IC50 in assay [1] was found to be 3 nM. The compound also yielded a Ki in assay [2] of 29 nM.

On to `Cc1cc2c(cnn2-c2ccc(=O)n(C)c2)cc1C1(Cc2ccccc2)CCN(S(=O)(=O)c2ccn(C)n2)C1` (centres unmarked) [Example 276, 5-(5-(3-benzyl-1-((1-methyl-1H-pyrazol-3-yl)sulfonyl)pyrrolidin-3-yl)-6-methyl-1H-indazol-1-yl)-1-methylpyridin-2(1H)-one], for which the IC50 in assay [1] was 5.4 nM. The affinity in assay [2] corresponds to a Ki of 52 nM.

For the compound `Cn1cc(S(=O)(=O)N2CCC(Cc3ccccc3)(c3cc4cnn(-c5ccc(F)cc5)c4cc3F)C2)cn1` (centres unmarked) [Example 173], the IC50 in assay [1] turned out to be 66 nM. The compound also displayed a Ki in assay [2] of 69 nM.

On to `Cc1cc2c(cnn2-c2cnn(C3CC3)c2)cc1C1(Cc2ccccc2)CCN(S(=O)(=O)c2cnn(C)n2)C1` (centres unmarked) [Example 252, 5-(3-benzyl-1-((2-methyl-2H-1,2,3-triazol-4-yl)sulfonyl)pyrrolidin-3-yl)-1-(1-cyclopropyl-1H-pyrazol-4-yl)-6-methyl-1H-indazole], for which the IC50 in assay [1] came out at 29 nM. Affinity in assay [2] was put at a Ki of 94 nM.

With `CCCn1cc(S(=O)(=O)N2CCC(c3ccc4c(cnn4-c4ccc(F)cc4)c3)C[C@H]2C)cn1` (stereo partly drawn) [Example 8, 1-(4-fluorophenyl)-5-((2R)-2-methyl-1-((1-propyl-1H-pyrazol-4-yl)sulfonyl)piperidin-4-yl)-1H-indazole], the IC50 in assay [1] amounted to 214 nM. This compound also returned a Ki in assay [2] of 238 nM.

Turning to `Cc1cc2c(cnn2-c2ccc(=O)n(C)c2)cc1C1(Cc2ccccc2)CCN(C(=O)c2ccnnc2)C1` (centres unmarked) [Example 327, 5-(5-(3-benzyl-1-(pyridazine-4-carbonyl)pyrrolidin-3-yl)-6-methyl-1H-indazol-1-yl)-1-methylpyridin-2(1H)-one], the IC50 in assay [1] turned out to be 170 nM. This compound also returned a Ki in assay [2] of 540 nM.

On to `CCCn1cc(S(=O)(=O)N2CCC(COC)(c3cc4cnn(-c5ccc(F)cc5)c4cc3C)CC2)cn1` [Example 24, 1-(4-fluorophenyl)-5-(4-(methoxymethyl)-1-((1-propyl-1H-pyrazol-4-yl)sulfonyl)piperidin-4-yl)-6-methyl-1H-indazole], for which the IC50 in assay [1] is 84 nM. In assay [2], the affinity, expressed as Ki, was 1510 nM.

As to `Cc1cc2c(cnn2-c2ccc(F)cc2)cc1N1CCN(S(=O)(=O)c2cnn(CC(F)(F)F)c2)C2(CC2)C1` [Example 67], the IC50 in assay [1] is 18 nM. This compound had a Ki in assay [2] of 33 nM.

In the case of `Cc1cc2c(cnn2-c2ccc(F)cc2)cc1N1CCC(C)(NS(C)(=O)=O)CC1` [Example 130], the IC50 in assay [1] is 8 nM. Besides, in assay [2], affinity was put at a Ki of 144 nM.
